ChEMBL document CHEMBL1201862, “PubChem BioAssay data set” (2004)
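These data come from cells grown in 96-well plates and exposed to compound for 48 hours at five concentrations. GI50 is the concentration that inhibits growth by half.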 Calls of active or inactive are those of the source. Cut-off read from the data, not from the text of the source: active = GI50 up to about 1.1 µM and inactive = higher.

Tests used:
Assay in all cases: growth of human tumour cells (NCI), 48 h
[1] = test system: SK-MEL-28
[2] = test system: SW-620
[3] = test system: HL-60
[4] = test system: SF-268
[5] = test system: Malme-3M
[6] = test system: SF-539
[7] = test system: KM12
[8] = test system: HOP-62
[9] = test system: M14
[10] = test system: DMS-114
[11] = test system: OVCAR-3
[12] = test system: NCI-H23
[13] = test system: LOX IMVI
[14] = test system: OVCAR-5
[15] = test system: A498
[16] = test system: SNB-75
[17] = test system: OVCAR-4
[18] = test system: UACC-62
[19] = test system: HOP-92
[20] = test system: NCI/ADR-RES

Compound	GI50 [1]	GI50 [2]	GI50 [3]	GI50 [4]	GI50 [5]	GI50 [6]	GI50 [7]	GI50 [8]	GI50 [9]	GI50 [10]	GI50 [11]	GI50 [12]	GI50 [13]	GI50 [14]	GI50 [15]	GI50 [16]	GI50 [17]	GI50 [18]	GI50 [19]	GI50 [20]
CCCCc1c2c([n+]([O-])c3c1CCCC3)CCCC2	32.8 µM (inactive)	> 100 µM (inactive)	38.1 µM (inactive)	66.4 µM (inactive)	> 100 µM (inactive)	> 100 µM (inactive)	> 100 µM (inactive)	> 100 µM (inactive)	> 10 µM (inactive)	> 100 µM (inactive)	31 µM (inactive)	> 100 µM (inactive)	> 100 µM (inactive)	–	–	–	–	–	–	–
Cc1nc2ccccc2c(=O)n1-c1ccccc1I	> 100 µM (inactive)	> 100 µM (inactive)	> 100 µM (inactive)	> 100 µM (inactive)	> 100 µM (inactive)	–	–	> 100 µM (inactive)	> 100 µM (inactive)	82.4 µM (inactive)	> 100 µM (inactive)	> 100 µM (inactive)	–	> 100 µM (inactive)	> 100 µM (inactive)	46.2 µM (inactive)	> 100 µM (inactive)	> 100 µM (inactive)	–	–
N#Cc1c2ccccc2c(Cc2ccc3c(c2)OCCOCCOCCOCCOCCO3)c2ccccc12	3.28 µM (inactive)	6.71 µM (inactive)	1.85 µM (inactive)	5.28 µM (inactive)	6.44 µM (inactive)	14.1 µM (inactive)	5.5 µM (inactive)	10.3 µM (inactive)	5.37 µM (inactive)	10.4 µM (inactive)	4.23 µM (inactive)	11.4 µM (inactive)	6.04 µM (inactive)	16.4 µM (inactive)	13.3 µM (inactive)	–	3 µM (inactive)	6.41 µM (inactive)	3.99 µM (inactive)	–
CN(C)CCC(/C=C/c1ccccc1)=N\Nc1ccc(Cl)cc1Cl	14.3 µM (inactive)	14 µM (inactive)	2.29 µM (inactive)	12.2 µM (inactive)	18.5 µM (inactive)	15.2 µM (inactive)	15.1 µM (inactive)	13.6 µM (inactive)	13.7 µM (inactive)	14.8 µM (inactive)	14.1 µM (inactive)	17.1 µM (inactive)	–	15.5 µM (inactive)	16.6 µM (inactive)	6.1 µM (inactive)	14.7 µM (inactive)	9.35 µM (inactive)	–	–
Cc1cc2nc3c(C(OC4OC(CO)C(O)C(O)C4O)C(O)CO)nn(-c4ccc(F)cc4)c3nc2cc1C (stereo not given)	> 100 µM (inactive)	–	–	> 100 µM (inactive)	> 100 µM (inactive)	> 100 µM (inactive)	> 100 µM (inactive)	> 100 µM (inactive)	> 100 µM (inactive)	> 100 µM (inactive)	> 100 µM (inactive)	> 100 µM (inactive)	> 100 µM (inactive)	> 100 µM (inactive)	> 100 µM (inactive)	80.7 µM (inactive)	> 100 µM (inactive)	> 100 µM (inactive)	–	–
N#Cc1c(C[n+]2ccccc2)c2ccccc2oc1=O	> 100 µM (inactive)	> 100 µM (inactive)	–	> 100 µM (inactive)	> 100 µM (inactive)	> 100 µM (inactive)	> 100 µM (inactive)	> 100 µM (inactive)	> 100 µM (inactive)	> 100 µM (inactive)	> 100 µM (inactive)	> 100 µM (inactive)	> 100 µM (inactive)	> 100 µM (inactive)	–	> 100 µM (inactive)	22.7 µM (inactive)	> 100 µM (inactive)	–	–
CN(C)C(=S)/N=c1\ssc(=S)n1Cc1ccncc1	35.1 µM (inactive)	16.5 µM (inactive)	–	24.3 µM (inactive)	16.3 µM (inactive)	21.2 µM (inactive)	4.79 µM (inactive)	24.9 µM (inactive)	20.6 µM (inactive)	2.39 µM (inactive)	13.3 µM (inactive)	23.9 µM (inactive)	19.8 µM (inactive)	40.8 µM (inactive)	36.2 µM (inactive)	13.6 µM (inactive)	20 µM (inactive)	10 µM (inactive)	–	–
O=[N+]([O-])c1ccc2nc(/C(=N/Nc3ccccc3)C(O)c3ccc(C(O)/C(=N\Nc4ccccc4)c4nc5ccc([N+](=O)[O-])cc5nc4O)cc3)cnc2c1 (stereo not given)	> 100 µM (inactive)	> 100 µM (inactive)	19.3 µM (inactive)	> 100 µM (inactive)	> 100 µM (inactive)	55.1 µM (inactive)	37.1 µM (inactive)	28.5 µM (inactive)	40.3 µM (inactive)	11.2 µM (inactive)	> 100 µM (inactive)	> 100 µM (inactive)	–	31.4 µM (inactive)	32.1 µM (inactive)	–	> 100 µM (inactive)	36 µM (inactive)	> 100 µM (inactive)	–
COC(=O)[C@]1(C)[C@H]2C[C@H]3O[C@H]4[C@H](O)[C@@H](O)OC(CC(O)C(C5=CC(=O)OC5)C(C5=CC(=O)OC5)C(O)CC56CCCCC7[C@@H](C)[C@H](C[C@H]8[C@](C)(C(=O)OC)[C@H](O)CC[C@]78C)O[C@H]([C@@H](O)[C@H](O)O5)[C@H]6O)(CCCCC([C@@H]3C)[C@]2(C)CC[C@@H]1O)[C@H]4O (stereo not given in full)	0.262 µM (active)	0.168 µM (active)	0.0513 µM (active)	< 0.0272 µM (active)	0.0989 µM (active)	0.0394 µM (active)	0.353 µM (active)	0.065 µM (active)	0.332 µM (active)	–	0.103 µM (active)	0.0439 µM (active)	0.0993 µM (active)	0.592 µM (active)	0.0916 µM (active)	0.129 µM (active)	0.147 µM (active)	0.33 µM (active)	0.281 µM (active)	0.0973 µM (active)
O=C(O)[C@H]1NC[C@H]2C(Br)=NO[C@@H]12	> 100 µM (inactive)	> 100 µM (inactive)	> 100 µM (inactive)	> 100 µM (inactive)	> 100 µM (inactive)	> 100 µM (inactive)	> 100 µM (inactive)	> 100 µM (inactive)	> 100 µM (inactive)	–	> 100 µM (inactive)	> 100 µM (inactive)	> 100 µM (inactive)	> 100 µM (inactive)	> 100 µM (inactive)	> 100 µM (inactive)	> 100 µM (inactive)	> 100 µM (inactive)	> 100 µM (inactive)	> 100 µM (inactive)
COc1cc(/C=C/c2ccc(OC)c(O)c2)cc(OC)c1	6.08 µM (inactive)	3.82 µM (inactive)	1.75 µM (inactive)	8.55 µM (inactive)	10 µM (inactive)	2.39 µM (inactive)	12.4 µM (inactive)	4.2 µM (inactive)	3.08 µM (inactive)	3.33 µM (inactive)	2.16 µM (inactive)	3.44 µM (inactive)	12.2 µM (inactive)	31.8 µM (inactive)	29.4 µM (inactive)	–	14.3 µM (inactive)	3.15 µM (inactive)	7.71 µM (inactive)	–
